B1: Subtilisin Carlsberg (protease from Bacillus licheniformis): commercially available hydrolase of the enzyme screening kit (protein, UniProt P00780 106-379, looked up)
Subtilisin Carlsberg: AQTVPYGIPLIKADKVQAQGFKGANVKVAVLDTGIQASHPDLNVVGGASFVAGEAYNTDGNGHGTHVAGTVAALDNTTGVLGVAPSVSLYAVKVLNSSGSGSYSGIVSGIEWATTNGMDVINMSLGGASGSTAMKQAVDNAYAKGVVVVAAAGNSGSSGNTNTIGYPAKYDSVIAVGAVDSNSNRASFSSVGAELEVMAPGAGVYSTYPTNTYATLNGTSMASPHVAGAAALILSKHPNLSASQVRNRLSSTATYLGSSFYYGKGLINVEAAAQ

Assays:
[1] = Solubility of the precursor in water; format: physicochemical
[2] = Enzyme screening: stereoselective hydrolysis (kinetic resolution) of racemic 1-(2,6-dichloro-3-fluorophenyl)ethyl acetate; format: biochemical; conditions: selective for hydrolysis of (S)-acetate; 5% substrate load, 100 mM potassium phosphate buffer pH 7.2
Description: For example, for stereoselective hydrolysis of esters by biocatalysts, a program (Ee2 software-University of Graz) can accurately calculate the E value if the enantiomeric excess (ee) of either the alcohol or the ester at one particular enzymatic conversion are known. The ee value can be obtained, for example, from Equation 1. The [S] and [R] data can be obtained, for example, by HPLC.
The resolution of 1-(2,6-dichloro-3-fluorophenyl)ethyl acetate was carried out as follows. A 96-well plate prepared as described above was thawed for 5 minutes. 80 μL of potassium phosphate buffer (0.1 M, pH 7.2) was then dispensed into the wells using a multi-channel pipette. 10 μL of the substrate stock solution (50 mg/mL acetonitrile) was then added to each well via a multi-channel pipette, and the 96 reactions were incubated at 30° C. and 750 rpm. The reactions were sampled after 16 hours by the transfer of 25 μL of the reaction mixture into a new 96-well plate, which was then quenched by the addition of 150 μL of acetonitrile. The 96-well plate was then centrifuged, and the organic supernatant transferred from each well into another 96-well plate. Sampled reactions were then sealed using a penetrable mat cover and transferred to an HPLC system for analysis. The same plate was used to analyze the samples for both reactivity and enantioselectivity using alternating columns on the HPLC simultaneously. […]

Molecule | solubility [1] | Reactivity [2]
CC(=O)c1c(Cl)ccc(F)c1Cl [precursor, 1-(2,6-dichloro-3-fluorophenyl)ethanone] | < 2500 µg/mL | 
B1 |  | Low
